Assay results taken from patent US10590056B2, “ERR modulators and uses thereof” (CITY OF HOPE, priority 2017, dated 2020).

What was measured:
[1] = test system: C2C12 myotubes; test: Fatty acid oxidation assay (3H-palmitate-BSA) in C2C12 myotubes; format: cell-based; settings: 100 nM, 48 hours, compared to vehicle-treated controls
Description: (§1) FIGS. 7A-7C. […] FIG. 7A. 293 HEK cells expressing either GFP or ERRγ via adenoviral transduction were treated with either vehicle (DMSO) or 100 nM DY40 for 48 hours. Expression of endogenous SHP (NR0B2) was quantitated by real-time PCR. Values are normalized to β-actin transcript and reported relative to GFP untreated levels (=1.0). Data represent mean±S.E.M. for 3 independent trials. FIG. 7B. C2C12 myotubes were treated with either vehicle or 100 nM DY40 for 48 hours. Expression of endogenous SHP was measured by quantitative real-time PCR. Values are normalized to 36b4 (Rp1p0) transcript and reported relative to expression in DMSO treated cells (=1.0). Data represent mean±S.E.M. for 3 independent trials. *, P<0.05 DMSO versus DY40 treated values. FIG. 7C. C2C12 myotubes were treated with either vehicle or 100 nM DY40 for 48 hours. Oxidation of ^3H-palmitate-BSA was measured as described in Methods. […]
The analysis of fatty acid oxidation rates in cells was performed as previously described.^57 Fatty acid ^3H-[9,10]-palimitic acid was complexed to fatty acid-free BSA and this complex was added to 30 uM unlabeled palmitate. […] The substrate was removed and radiolabeled aqueous metabolites (^3H2O) released to the media were measured by scintillation counting. The calculated rates were normalized to total cellular protein.

[2] = test system: ERRγ target gene SHP (NR0B2); test: Endogenous SHP (NR0B2) expression by real-time PCR in 293 HEK cells expressing ERRγ via adenovirus; format: cell-based, human; settings: 293HEK over-expressing ERRγ, 100 nM, 48 hours
Description: as §1, with “Methods. Values are normalized to total cellular protein and reported relative to expression in DMSO treated cells (=1.0).” for “Methods.”
(§2) Validation of DY40 effects on endogenous ERRγ target gene expression and metabolism in cell based models. […] We also evaluated the effects of the compound in C2C12 myotubes that have significant endogenous ERRγ expression. […]
(§3) Experimental transcript levels were normalized to 36B4 ribosomal RNA analyzed in separate reactions. […]

[3] = molecular target: T1, Human ERα (Homo sapiens, UniProt P03372); test: Full-length ERα, estrogen receptor responsive reporter assay in CV-1 cells; format: cell-based; settings: selectivity evaluation
T1 construct: Human ERα and ERβ were examined as full-length proteins using an estrogen receptor responsive reporter construct; expressed in transfected cells; host or cells: CV-1 cells, cytomegalovirus-driven expression vectors
T1 sequence (P03372 1-595): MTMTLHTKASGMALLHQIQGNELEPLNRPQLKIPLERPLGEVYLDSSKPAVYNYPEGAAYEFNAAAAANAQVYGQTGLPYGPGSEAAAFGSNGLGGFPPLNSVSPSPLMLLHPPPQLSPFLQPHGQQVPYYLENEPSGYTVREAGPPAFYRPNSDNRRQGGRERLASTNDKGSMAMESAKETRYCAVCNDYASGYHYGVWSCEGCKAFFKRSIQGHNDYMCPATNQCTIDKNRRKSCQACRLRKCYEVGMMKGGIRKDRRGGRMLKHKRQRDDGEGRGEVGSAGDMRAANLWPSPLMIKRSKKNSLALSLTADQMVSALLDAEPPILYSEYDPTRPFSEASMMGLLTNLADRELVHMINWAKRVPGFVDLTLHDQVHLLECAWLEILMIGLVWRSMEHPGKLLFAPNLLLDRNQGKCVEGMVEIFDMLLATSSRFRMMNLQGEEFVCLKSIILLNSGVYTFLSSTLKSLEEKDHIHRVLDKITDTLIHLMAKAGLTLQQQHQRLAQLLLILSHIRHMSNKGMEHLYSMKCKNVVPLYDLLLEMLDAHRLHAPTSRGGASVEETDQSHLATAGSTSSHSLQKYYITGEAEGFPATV
Description: Cell based transactivation assays were performed in CV-1 cells as described.^49 ERR activity was assayed with a GAL4 reporter construct and fusion proteins containing the ligand binding domains of human ERRα, human ERRβ and mouse ERRγ linked to the DNA binding domain of yeast GAL4. Human ERα and ERβ were examined as full-length proteins using an estrogen receptor responsive reporter construct. Reporter constructs (300 ng/10^5 cells) and cytomegalovirus-driven expression vectors (20-50 ng/10^5 cells) were added as indicated along with CMX-β-gal (500 ng/10^5 cells) as an internal control. Cells were transiently transfected by Lipofectamine as described.^56 Cells were incubated with DNA complexed liposomes for 2 hours and subsequently treated for approximately 45 hr with phenol red free DMEM FBS containing the indicated compounds. After exposure to ligand, the cells were harvested and assayed for luciferase and β-galactosidase activity. All points were assayed in triplicate and varied by less than 15%. Each experiment was repeated three or more times with similar results. Fold activation is reported.

[4] = test system: ERRγ target gene SHP; test: Endogenous SHP transcript by real-time PCR in C2C12 myotubes; format: cell-based, mouse; settings: 100 nM, 48 hours, vs DMSO
Description: as §1, with “Methods. Values are normalized to total cellular protein and reported relative to expression in DMSO treated cells (=1.0).” for “Methods.”
as §2, §3

**Q.** Which results are given for CC(=O)Oc1ccc(/C(=C(/c2ccccc2)C(C)C)c2ccc(OCCN(C)C)cc2)cc1 [Compound 4a, (E)-4-{1-[4-(2-dimethylamino-ethoxy)-phenyl]-3-methyl-2-phenyl-but-1-enyl}-phenyl acetate]?
**A.** change in palmitate oxidation rates [1]: −42%; ERRγ mediated induction of SHP transcript [2]: completely blocked; ERα antagonist activity, in words [3]: remains an antagonist potency of ERα; repression of endogenous SHP transcript levels [4]: ~60%
